Assay results as given in US12268665B2, “Combination of immunotherapies with MDM2 inhibitors” (ASCENTAGE PHARMA (SUZHOU) CO., LTD., priority 2018, dated 2025).
Read-outs that look alike come from different tables or passages of the source.

Key:
[1] = test system: MH-22A syngeneic tumor model; assay: Efficacy in the TIL analysis study, MH-22A model (d7); type: in vivo, mouse; details: APG-115 10 mg/kg p.o. q2d; anti-PD-1 5 mg/kg i.p. biw; epacadostat 100 mg/kg p.o. bid; × 6 d
Procedure: (§1) Each mouse was inoculated subcutaneously at the right flank region with MH-22A tumor cells (5×10^6) in 0.2 mL of PBS for tumor development. The treatments were started when the mean tumor size reached 60 mm^3. The test articles were administered to the tumor-bearing mice according to the regimen shown in the experimental design Table 6. The day of start dosing was defined as d1.
Mice bearing MH-22A murine hepatoma tumors were treated with various agent(s) under different regimens as indicated. Isotype control antibody was included in the control.

[2] = Pharmacokinetic (PK) analysis in MH-22A tumor-bearing mice (LC/MS/MS); type: in vivo, mouse; details: mouse; for concentration at 4 h: oral, 100 mg/kg
Procedure: The quantitative LC/MS/MS analysis was conducted using an Exion HPLC system (AB Sciex, Ontario, Canada) coupled to an API 5500 mass spectrometer (AB Sciex, Ontario, Canada) equipped with an API electrospray ionization (ESI) source. The Phenomenex Titank phenyl-Hexyl column (50 mm×2.1 mm, 5 μm particle size) was used to achieved HPLC separation. The injection volume was 2 μl and the flow rate was kept constantly at 0.5 ml/min. Chromatography was performed with mobile phase A, acetonitrile:water:formic (5:95:0.1, by volume) and B, acetonitrile:water:formic (95:5:0.1, by volume). The mass spectrometer was operated at ESI positive ion mode for APG-115 while ESI negative mode for epacadostat. The detection of the ions was performed in the multiple reaction monitoring (MRM) mode, monitoring the transition of m/z 642.0→246.1 and 271.1→172.0 for APG-115 and IS (tolbutamide) in positive mode, 435.9→338.8 and 269.2→169.2 for epacadostat and IS (tolbutamide) in negative mode, respectively. Compounds parameters, declustering potential (DP), collision energy (CE) were 51, 61 V, 80, 18 V for APG-115 and IS in positive mode, −61, −15 V and −90, −23.5 V for epacadostat and IS in negative mode, respectively.
Blood and tumor samples were collected from 5 mice/group in group-1, group-2, group-3 and group-5 4 hrs after the final dose on […]. Blood samples were collected from 5 mice/group in group-4, group-6, group-7 and group-8 4 hrs after the final dose on d29. Approximately 100 μl blood were collected in EDTA-2K tube and 50 μl plasma were collected for PK analysis. All samples were stored at −80° C. until analysis.
In efficacy study of Example 2.1, mice in vehicle, APG-115 10 mg/kg and 50 mg/kg, and epacadostat single-agent groups were euthanized on d15 as described above. To assess PK characteristics of APG-115 and epacadostat in this study, plasma and tissue samples were collected 4 h after the last dosing on d15.

[3] = test system: MH-22A murine hepatoma syngeneic model; assay: In vivo efficacy study in MH-22A model; design: species or system mouse
Procedure: Tumor volumes were measured twice weekly in two dimensions using a caliper, and the volume was expressed in mm^3 using the formula: Tumor Volume(mm^3)=0.5a×b^2 where a and b are the long and short diameters of the tumor, respectively.
Relative tumor volume (RTV) was calculated using the following formula: RTV=Vt/V1 Where V1 and Vt are the average tumor volumes on the first day of treatment (day 1) and the average tumor volumes on a certain time point (day t).
Synergy score was calculated using the following formula (Clarke R, Breast Cancer Research & Treatment, 1997, 46(2-3):255-278): Synergy score=((A/C)×(B/C))/(AB/C); A: response to treatment A; B: response to treatment B; C: response to vehicle control; AB: combination of treatment A and B.
Standard NCI procedures were used to calculate tumor parameters. Percent tumor growth inhibition (% T/C) was calculated as the mean RTV of treated tumors (T) divided by the mean RTV of control tumors (C)×100%. The percentage T/C value is an indication of antitumor effectiveness: a value of T/C<42% is considered significant antitumor activity by the NCI. A T/C value <10% is considered to indicate highly significant antitumor activity, and is the level used by the NCI to justify a clinical trial if toxicity and certain other requirements are met (termed DN-2 level activity). A body weight loss nadir (mean of group) of greater than 20%, or greater than 20% of drug deaths are considered to indicate an excessively toxic dosage.
as §1, with “initiated” for “started”, “˜65” for “60”, “3.” for “6.”

[4] = APG-115 10 mg/kg p.o. qd, anti-PD-1 10 mg/kg i.p. biw, epacadostat 100 mg/kg p.o. bid

pharmacokinetic interaction with anti-PD-1 antibody ([2]; in vivo): no apparent pharmacokinetic interaction
concentration at 4 h ([2]; plasma, 100 mg/kg daily oral, alone, read-out: plasma concentration of epacadostat): 5890 ng/mL
concentration at 4 h ([2]; plasma, 100 mg/kg daily oral, combined with anti-PD-1, read-out: plasma concentration of epacadostat): 8620 ng/mL
concentration at 4 h ([2]; tumor, 100 mg/kg dosed alone, read-out: epacadostat concentration in tumor): 9260 ng/g
SMILES: NS(=O)(=O)NCCNc1nonc1C(=NO)Nc1ccc(F)c(Br)c1 [epacadostat, reference compound]
RTV (Mean) d7 [1]: 12.7
T/C (%) d7 [1]: 82%
RTV (Mean ± SEM) d15 [3, 4]: 49.1 ± 5.8
T/C (%) d15 [3, 4]: 128%
Response rate (%) d15 ([3]; APG-115 10 mg/kg, anti-PD-1 10 mg/kg, epacadostat 100 mg/kg, n=10): 0%
antitumor activity as single agents ([3]; APG-115 10 and 50 mg/kg, epacadostat 100 mg/kg): did not exert antitumor activity
